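In this assay, cells in 96-well plates receive the compound at five concentrations for 48 hours. Endpoints are linearly interpolated between the surrounding concentrations. TGI denotes the concentration required for complete inhibition of growth.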
Columns and labels:
Assay in all cases: NCI tumour cell line growth inhibition, 48 h
EKVX NSCLC = tested on: EKVX NSCLC
SK-MEL-28 melanoma = tested on: SK-MEL-28 melanoma
SF-539 CNS = tested on: SF-539 CNS
BT-549 breast = tested on: BT-549 breast
UACC-62 melanoma = tested on: UACC-62 melanoma
SK-MEL-2 melanoma = tested on: SK-MEL-2 melanoma
HOP-62 NSCLC = tested on: HOP-62 NSCLC
MOLT-4 leukemia = tested on: MOLT-4 leukemia
CCRF-CEM leukemia = tested on: CCRF-CEM leukemia
HCT-116 colon = tested on: HCT-116 colon
HOP-92 NSCLC = tested on: HOP-92 NSCLC
ACHN renal = tested on: ACHN renal
SNB-75 CNS = tested on: SNB-75 CNS
MCF7 breast = tested on: MCF7 breast
NCI-H522 lung = tested on: NCI-H522 lung
RPMI-8226 leukemia = tested on: RPMI-8226 leukemia
KM12 colon = tested on: KM12 colon
COLO 205 colon = tested on: COLO 205 colon
NCI-H226 lung = tested on: NCI-H226 lung
A498 renal = tested on: A498 renal
NCI-H23 lung = tested on: NCI-H23 lung
SN12C renal = tested on: SN12C renal
HT29 colon = tested on: HT29 colon
U251 CNS = tested on: U251 CNS
SK-MEL-5 melanoma = tested on: SK-MEL-5 melanoma
NCI/ADR-RES ovarian = tested on: NCI/ADR-RES ovarian
M14 melanoma = tested on: M14 melanoma
MDA-MB-231 breast = tested on: MDA-MB-231 breast
LOX IMVI melanoma = tested on: LOX IMVI melanoma
PC-3 prostate = tested on: PC-3 prostate
TK-10 renal = tested on: TK-10 renal
T-47D breast = tested on: T-47D breast
OVCAR-4 ovarian = tested on: OVCAR-4 ovarian
SK-OV-3 ovarian = tested on: SK-OV-3 ovarian
DU-145 prostate = tested on: DU-145 prostate
OVCAR-8 ovarian = tested on: OVCAR-8 ovarian
HCT-15 colon = tested on: HCT-15 colon
A549 NSCLC = tested on: A549 NSCLC
MDA-N = tested on: MDA-N
SF-295 CNS = tested on: SF-295 CNS
786-0 renal = tested on: 786-0 renal
SF-268 CNS = tested on: SF-268 CNS
UACC-257 melanoma = tested on: UACC-257 melanoma
MALME-3M melanoma = tested on: MALME-3M melanoma
SW-620 colon = tested on: SW-620 colon
OVCAR-5 ovarian = tested on: OVCAR-5 ovarian
HL-60(TB) leukemia = tested on: HL-60(TB) leukemia
SNB-19 CNS = tested on: SNB-19 CNS
IGROV1 ovarian = tested on: IGROV1 ovarian
MDA-MB-435 = tested on: MDA-MB-435
CAKI-1 renal = tested on: CAKI-1 renal
RXF 393 renal = tested on: RXF 393 renal
HS 578T breast = tested on: HS 578T breast
OVCAR-3 ovarian = tested on: OVCAR-3 ovarian
HCC-2998 colon = tested on: HCC-2998 colon
K-562 leukemia = tested on: K-562 leukemia
SR leukemia = tested on: SR leukemia
NCI-H460 lung = tested on: NCI-H460 lung
UO-31 renal = tested on: UO-31 renal
SNB-78 CNS = tested on: SNB-78 CNS
LXFL 529 NSCLC = tested on: LXFL 529 NSCLC
DMS 114 small cell lung = tested on: DMS 114 small cell lung
DMS 273 small cell lung = tested on: DMS 273 small cell lung
M19-MEL melanoma = tested on: M19-MEL melanoma
DLD-1 colon = tested on: DLD-1 colon
XF 498 CNS = tested on: XF 498 CNS

`O=C1/C(=C/c2ccc(O)cc2)Oc2ccccc21` gave a TGI (EKVX NSCLC) of over 100 µM, a TGI (SK-MEL-28 melanoma) of over 100 µM and a TGI (SF-539 CNS) of over 100 µM. The TGI (BT-549 breast) was over 100 µM, the TGI (UACC-62 melanoma) was over 100 µM and the TGI (SK-MEL-2 melanoma) was over 100 µM. The TGI (HOP-62 NSCLC) was over 100 µM, the TGI (MOLT-4 leukemia) was over 100 µM and the TGI (CCRF-CEM leukemia) was over 100 µM. The TGI (HCT-116 colon) was over 100 µM, the TGI (HOP-92 NSCLC) was over 100 µM and the TGI (ACHN renal) was over 100 µM. The TGI (SNB-75 CNS) was over 100 µM, the TGI (MCF7 breast) was over 100 µM and the TGI (NCI-H522 lung) was 62 µM. It also gave a TGI (RPMI-8226 leukemia) of over 100 µM, a TGI (KM12 colon) of over 100 µM and a TGI (COLO 205 colon) of over 100 µM. It also gave a TGI (NCI-H226 lung) of over 100 µM, a TGI (A498 renal) of over 100 µM and a TGI (NCI-H23 lung) of over 100 µM. It also gave a TGI (SN12C renal) of over 100 µM, a TGI (HT29 colon) of over 100 µM and a TGI (U251 CNS) of over 100 µM. It also gave a TGI (SK-MEL-5 melanoma) of over 100 µM, a TGI (NCI/ADR-RES ovarian) of over 100 µM and a TGI (M14 melanoma) of over 100 µM. For the same compound, the TGI (MDA-MB-231 breast) was over 100 µM, the TGI (LOX IMVI melanoma) was over 100 µM and the TGI (PC-3 prostate) was over 100 µM. The TGI (TK-10 renal) was over 100 µM, the TGI (T-47D breast) was over 100 µM and the TGI (OVCAR-4 ovarian) was over 100 µM. It also gave a TGI (SK-OV-3 ovarian) of over 100 µM, a TGI (DU-145 prostate) of over 100 µM and a TGI (OVCAR-8 ovarian) of over 100 µM. The TGI (HCT-15 colon) was over 100 µM, the TGI (A549 NSCLC) was over 100 µM and the TGI (MDA-N) was over 100 µM. The TGI (SF-295 CNS) was over 100 µM, the TGI (786-0 renal) was over 100 µM and the TGI (SF-268 CNS) was over 100 µM. It also gave a TGI (UACC-257 melanoma) of over 100 µM, a TGI (MALME-3M melanoma) of over 100 µM and a TGI (SW-620 colon) of over 100 µM. The TGI (OVCAR-5 ovarian) was over 100 µM, the TGI (HL-60(TB) leukemia) was 92.9 µM and the TGI (SNB-19 CNS) was over 100 µM. It also gave a TGI (IGROV1 ovarian) of over 100 µM, a TGI (MDA-MB-435) of over 100 µM and a TGI (CAKI-1 renal) of over 100 µM. The TGI (RXF 393 renal) was over 100 µM, the TGI (HS 578T breast) was over 100 µM and the TGI (OVCAR-3 ovarian) was over 100 µM. It also gave a TGI (HCC-2998 colon) of over 100 µM, a TGI (K-562 leukemia) of over 100 µM and a TGI (SR leukemia) of over 100 µM. It also gave a TGI (NCI-H460 lung) of over 100 µM.
`N#CNC1=NCCC(=O)N1CCc1c[nH]c2ccccc12` gave a TGI (EKVX NSCLC) of over 100 µM, a TGI (SK-MEL-28 melanoma) of over 100 µM and a TGI (SF-539 CNS) of over 100 µM. It also gave a TGI (UACC-62 melanoma) of over 100 µM, a TGI (HOP-62 NSCLC) of over 100 µM and a TGI (MOLT-4 leukemia) of over 100 µM. It also gave a TGI (CCRF-CEM leukemia) of over 100 µM, a TGI (HCT-116 colon) of over 100 µM and a TGI (UO-31 renal) of over 100 µM. For the same compound, the TGI (SNB-75 CNS) was over 100 µM, the TGI (SNB-78 CNS) was over 100 µM and the TGI (LXFL 529 NSCLC) was over 100 µM. The TGI (RPMI-8226 leukemia) was over 100 µM, the TGI (DMS 114 small cell lung) was over 100 µM and the TGI (KM12 colon) was over 100 µM. The TGI (COLO 205 colon) was over 100 µM, the TGI (NCI-H226 lung) was over 100 µM and the TGI (DMS 273 small cell lung) was over 100 µM. The TGI (NCI-H23 lung) was over 100 µM, the TGI (SN12C renal) was over 100 µM and the TGI (HT29 colon) was over 100 µM. It also gave a TGI (M19-MEL melanoma) of over 100 µM, a TGI (SK-MEL-5 melanoma) of over 100 µM and a TGI (M14 melanoma) of over 100 µM. The TGI (DLD-1 colon) was over 100 µM, the TGI (LOX IMVI melanoma) was over 100 µM and the TGI (TK-10 renal) was over 100 µM. The TGI (OVCAR-4 ovarian) was over 100 µM, the TGI (SK-OV-3 ovarian) was over 100 µM and the TGI (OVCAR-8 ovarian) was over 100 µM. The TGI (HCT-15 colon) was over 100 µM, the TGI (A549 NSCLC) was over 100 µM and the TGI (SF-295 CNS) was over 100 µM. It also gave a TGI (786-0 renal) of over 100 µM, a TGI (SF-268 CNS) of over 100 µM and a TGI (UACC-257 melanoma) of over 100 µM. The TGI (SW-620 colon) was over 100 µM, the TGI (HL-60(TB) leukemia) was over 100 µM and the TGI (SNB-19 CNS) was over 100 µM. It also gave a TGI (XF 498 CNS) of over 100 µM, a TGI (IGROV1 ovarian) of over 100 µM and a TGI (RXF 393 renal) of over 100 µM. For the same compound, the TGI (OVCAR-3 ovarian) was over 100 µM, the TGI (HCC-2998 colon) was over 100 µM and the TGI (K-562 leukemia) was over 100 µM. The TGI (SR leukemia) was over 100 µM.
